In patent US9650390B2, “Water-soluble taxane derivatives and uses thereof” (priority 2014, dated 2017):

Legend:
[1] = system: human prostate cancer PC-3; test: Inhibitory activity of docetaxel derivatives on subcutaneously xenografted tumor PC-3 in nude mice; type: in vivo; details: 33.6 mg/kg, D0 IV; for T/C (%) D20 / Tumor inhibitory percent (%) D20 / Tumor volume (mm^3) (D0) / Tumor volume (mm^3) (D20): PC-3 xenograft in nude mice; for Tumor inhibitory percent (%) D20: P = 0.000 vs control; for Tumor volume (mm^3) (D0): baseline at grouping (D0); for Weight change (%) D6: nude mice
Excerpt: Purpose: to evaluate and compare the inhibitory activity of the water soluble docetaxel derivatives and docetaxel on subcutaneously xenografted tumor of human prostate cancer PC-3 in nude mice
Human prostate cancer PC-3 cells were subcutaneously inoculated into nude mice. After the tumor volume reached 100-150 mm^3, the animals were randomly divided into several groups, and administered with the water soluble docetaxel derivatives of the following formula and docetaxel, respectively once on the same day (D0). The tumor volume was measured 2-3 times per week, the animals were weighed and the data were recorded until day 20 (D20) after grouping.
(§1) The tumor volume (V) was calculated according to the equation: V=½×a×b^2, wherein a and b represent the length and the width, respectively.
T/C (%)=(T−T0)/(C−C0)×100, wherein T and C represent the tumor volume at the end of the experiment; and T0 and C0 represent the tumor volume at the beginning of the experiment.

[2] = In vitro dissociation in blood plasma of rabbit; type: in vitro ADME, New Zealand white rabbits; details: fresh New Zealand white rabbit plasma, 37° C.
Experimental: The obtained water soluble taxane derivatives of the following formulae were formulated as 0.2 mg/ml aqueous solutions. […]

[3] = In vitro dissociation in blood plasma of rat; type: in vitro ADME, SD rats; details: fresh SD rat plasma, 37° C.; for Sampling time/Dissociation percent (%) 2 min: 2 min incubation; for Sampling time/Dissociation percent (%) 5 min: 5 min incubation; for Sampling time/Dissociation percent (%) 10 min: 10 min incubation
Experimental: The obtained water soluble taxane derivatives of the following formulae were formulated as 0.2 mg/ml aqueous solutions. […] After 2 min, 5 min and 10 min of incubation, 0.2 ml of solutions were respectively taken from each of the samples, and added to acetonitrile (0.4 ml) cooled to −20° C. for precipitation of protein.

[4] = system: human ovarian cancer SK-OV-3; details: 24 mg/kg, D0-4 IV
Excerpt: Purpose: to evaluate and compare the inhibitory activity of the water soluble paclitaxel derivatives, paclitaxel and Abraxane® on subcutaneously xenografted tumor of human ovarian cancer SK-OV-3 in nude mice.
Human ovarian cancer SK-OV-3 cells were subcutaneously inoculated to nude mice. After the tumor volume reached 100-150 mm^3, the animals were randomly divided into groups (D0), and administered with the water soluble paclitaxel derivatives of the following formula, paclitaxel, and Abraxane®, respectively once per day for 5 days. The tumor volume was measured 2-3 times per week, the animals were weighed and the data were recorded until day 22 (D22) after grouping.
as §1
T/C (%)=(T−T0)/(C−C0)×100, wherein T and C represent the tumor volume at the end of the experiment, and T0 and C0 represent the tumor volume at the beginning of the experiment.

[5] = D22, SK-OV-3 xenograft in nude mice

Compound	T/C (%) D20 [1] [%]	Tumor inhibitory percent (%) D20 [1] [%]	Tumor volume (mm^3) (D0) [1]	Sampling time/Dissociation percent (%) 2 min [2] [%]	Sampling time/Dissociation percent (%) 5 min [2] [%]	Sampling time/Dissociation percent (%) 10 min [2] [%]	Sampling time/Dissociation percent (%) 2 min [3] [%]	Sampling time/Dissociation percent (%) 5 min [3] [%]	Sampling time/Dissociation percent (%) 10 min [3] [%]	Tumor volume (mm^3) (D20) [1]	Body weight change (%) D4 ([4]; D4, nude mice) [%]	T/C (%) D22 [4, 5] [%]	Tumor volume (mm^3) (D22) [4, 5]	Tumor volume (mm^3) (D0) ([4]; baseline at grouping (D0), SK-OV-3 xenograft in nude mice)	Weight change (%) D6 [1] [%]
CC(=O)O[C@@]12CO[C@@H]1C[C@H](O)[C@@]1(C)C(=O)[C@H](O)C3=C(C)[C@@H](OC(=O)[C@H](OC(=O)[C@H](F)CCN(C)C)[C@@H](NC(=O)OC(C)(C)C)c4ccccc4)C[C@@](O)([C@@H](OC(=O)c4ccccc4)[C@H]21)C3(C)C.CS(=O)(=O)O [Compound C4, 2′-O-[4-N,N-dimethylamino-2(R)-fluorobutyryl]docetaxel methanesulfonate]	−77	177	113.7 ± 2.9	81.6	94.8	100	59.2	93.4	100	–	–	–	–	–	–
CC(=O)O[C@@]12CO[C@@H]1C[C@H](O)[C@@]1(C)C(=O)[C@H](O)C3=C(C)[C@@H](OC(=O)[C@H](OC(=O)[C@@H](F)CCN(C)C)[C@@H](NC(=O)OC(C)(C)C)c4ccccc4)C[C@@](O)([C@@H](OC(=O)c4ccccc4)[C@H]21)C3(C)C.CS(=O)(=O)O [Compound C5, 2′-O-[4-N,N-dimethylamino-2(S)-fluorobutyryl]docetaxel methanesulfonate]	−76	175	113.4 ± 3.1	81.2	93.1	100	58.9	93.3	100	26.8 ± 12.6	–	–	–	–	–
CC(=O)OC1C(=O)C2(C)C(O)CC3OCC3(OC(C)=O)C2C(OC(=O)c2ccccc2)C2(O)CC(OC(=O)C(OC(=O)C(CCN(C)C)C(F)(F)F)C(NC(=O)c3ccccc3)c3ccccc3)C(C)=C1C2(C)C.Cc1ccc(S(=O)(=O)O)cc1 [Compound C21, 2′-O-[4-N,N-dimethylamino-2(R,S)-2-trifluoromethylbutyryl]paclitaxel p-toluene sulfonate]	–	–	–	–	–	–	–	–	–	–	−8.9	−48	57.3 ± 11.4	134.9 ± 11.4	–
CC(=O)O[C@@]12CO[C@@H]1C[C@H](O)[C@@]1(C)C(=O)[C@H](O)C3=C(C)[C@@H](OC(=O)[C@H](OC(=O)C(F)CCN(C)C)[C@@H](NC(=O)OC(C)(C)C)c4ccccc4)C[C@@](O)([C@@H](OC(=O)c4ccccc4)[C@H]21)C3(C)C.CS(=O)(=O)O (stereo partly drawn) [Compound C6, 2′-O-[4-N,N-dimethylamino-2(R,S)-fluorobutyryl]docetaxel methanesulfonate]	−76	175	113.8 ± 3.0	76.8	97.8	100	59.1	93.3	100	27.0 ± 12.3	–	–	–	–	−12.6
CCN(C)CCC(F)C(=O)OC(C(=O)OC1CC2(O)C(OC(=O)c3ccccc3)C3C4(OC(C)=O)COC4CC(O)C3(C)C(=O)C(O)C(=C1C)C2(C)C)C(NC(=O)OC(C)(C)C)c1ccccc1.CS(=O)(=O)O [Compound C25, 2′-O-[4-N-methyl-N-ethylamino-2(R)-fluorobutyryl]docetaxel methanesulfonate]	−62	143	113.8 ± 3.0	–	–	–	–	–	–	30.4 ± 11.1	–	–	–	–	−13.6
CC(=O)O[C@@]12CO[C@@H]1C[C@H](O)[C@@]1(C)C(=O)[C@H](O)C3=C(C)[C@@H](OC(=O)[C@H](OC(=O)C(CCN(C)C)C(F)F)[C@@H](NC(=O)OC(C)(C)C)c4ccccc4)C[C@@](O)([C@@H](OC(=O)c4ccccc4)[C@H]21)C3(C)C.Cl (stereo partly drawn) [Compound C29, 2′-O-[4-N,N-dimethylamino-2(R,S)-2-difluoromethylbutyryl]docetaxel hydrochloride]	−37	85	116.7 ± 3.1	–	–	–	–	–	–	36.8 ± 13.4	–	–	–	–	−15.1
CO[C@H]1C(=O)[C@]2(C)[C@@H](OC)C[C@H]3OC[C@@]3(OC(C)=O)[C@H]2[C@H](OC(=O)c2ccccc2)[C@]2(O)C[C@H](OC(=O)[C@H](OC(=O)[C@@H](CCN)C(F)F)[C@@H](NC(=O)OC(C)(C)C)c3ccccc3)C(C)=C1C2(C)C.O=S(=O)(O)O [Compound C10, 2′-O-[4-amino-2(R)-difluoromethylbutyryl]cabazitaxel sulfate]	–	–	–	48.9	68.4	91.3	45.6	87.1	97.3	–	–	–	–	–	–
CC(=O)O[C@@]12CO[C@@H]1C[C@H](O)[C@@]1(C)C(=O)[C@H](O)C3=C(C)[C@@H](OC(=O)[C@H](OC(=O)[C@H](F)CCN(C)C(C)C)[C@@H](NC(=O)OC(C)(C)C)c4ccccc4)C[C@@](O)([C@@H](OC(=O)c4ccccc4)[C@H]21)C3(C)C.Cl [Compound C27, 2′-O-[4-N-methyl-N-isopropylamino-2(R)-fluorobutyryl]docetaxel hydrochloride]	−44	101	116.3 ± 3.7	–	–	–	–	–	–	35.3 ± 14.7	–	–	–	–	−14.4
CC(=O)O[C@@]12CO[C@@H]1C[C@H](O)[C@@]1(C)C(=O)[C@H](O)C3=C(C)[C@@H](OC(=O)[C@H](OC(=O)[C@@H](CCN(C)C)C(F)(F)F)[C@@H](NC(=O)OC(C)(C)C)c4ccccc4)C[C@@](O)([C@@H](OC(=O)c4ccccc4)[C@H]21)C3(C)C.CS(=O)(=O)O [Compound C28, 2′-O-[4-N,N-dimethylamino-2(R)-2-trifluoromethylbutyryl]docetaxel methanesulfonate]	−46	105	113.5 ± 2.8	–	–	–	–	–	–	34.5 ± 12.6	–	–	–	–	−13.9
CCN(C)C(C)C[C@H](CC(F)F)C(=O)O[C@@H](C(=O)O[C@H]1C[C@@]2(O)[C@@H](OC(=O)c3ccccc3)[C@@H]3[C@]4(OC(C)=O)CO[C@@H]4C[C@H](O)[C@@]3(C)C(=O)[C@H](O)C(=C1C)C2(C)C)[C@@H](NC(=O)OC(C)(C)C)c1ccccc1.Cl (stereo partly drawn) [Compound 12, 2′-O-[4-N-methyl-N-ethylamino-2(R)-2-difluoroethylvaleryl]docetaxel hydrochloride]	–	–	–	35.2	61.3	73.2	43.6	75.6	89.6	–	–	–	–	–	–
COC1C(=O)C2(C)C(OC)CC3OCC3(OC(C)=O)C2C(OC(=O)c2ccccc2)C2(O)CC(OC(=O)C(OC(=O)C(CCN)C(F)F)C(NC(=O)OC(C)(C)C)c3ccccc3)C(C)=C1C2(C)C.O=S(=O)([O-])O.[Na+] [Compound 10, 2′-O-[4-amino-2(R)-difluoromethylbutyryl]cabazitaxel sodium bisulfate salt]	–	–	–	38.1	63.2	80.3	45.2	86.5	96.8	–	–	–	–	–	–
CCN(CC)CC[C@](C)(C(=O)O[C@@H](C(=O)O[C@H]1C[C@@]2(O)[C@@H](OC(=O)c3ccccc3)[C@@H]3[C@]4(OC(C)=O)CO[C@@H]4C[C@H](OC)[C@@]3(C)C(=O)[C@H](OC)C(=C1C)C2(C)C)[C@@H](NC(=O)OC(C)(C)C)c1ccccc1)C(F)(F)F.Cl [Compound C11, 2′-O-[4-N,N-diethylamino-2-methyl-2(R)-2-trifluoromethylbutyryl]cabazitaxel hydrochloride]	–	–	–	61.2	84.5	96.3	51.2	88.4	95.9	–	–	–	–	–	–
CCN(CC)CCC(F)C(=O)OC(C(=O)OC1CC2(O)C(OC(=O)c3ccccc3)C3C4(OC(C)=O)COC4CC(O)C3(C)C(=O)C(O)C(=C1C)C2(C)C)C(NC(=O)OC(C)(C)C)c1ccccc1.O=C(O)C=CC(=O)O [Compound C26, 2′-O-[4-N,N-diethylamino-2(S)-fluorobutyryl]docetaxel maleate]	−52	120	114.4 ± 2.8	–	–	–	–	–	–	32.4 ± 13.5	–	–	–	–	−14.1
